Biological target: T1, Bromodomain-containing protein 4 (Homo sapiens, UniProt O60885)
Experiment: Inhibition of human BRD4-BD1 (49 to 170 residues) expressed in Escherichia coli BL21(DE3) using N-C:SGRG-K(Ac)-GG-K(Ac)-GLG-K(Ac)-GGA-K(Ac)-RHRKVGG-K(biotin) as substrate preincubated for 15 mins followed by substrate addition measured after 5 mins by AlphaScreen assay relative to control
Design: concentration or dose not given beside the values

SMILES | inhibition [%]
COc1ccc(C(=O)N(C)CCCNc2cc(=O)oc3ccccc23)cc1 | 48.9
CN(CCCNC(=O)c1nc2ccccc2c(=O)[nH]1)C(=O)c1cccs1 | 56.5
O=c1cc(NCCCN2CCOCC2)c2ccccc2o1 | 59.9
O=C(NCCNc1cc(=O)oc2ccccc12)c1cccs1 | 72
O=c1oc2ccccc2c2ncn(CCCN3CCOCC3)c12 | 40.7
CN(CCCNc1cc(=O)oc2ccccc12)C(=O)c1cccc(F)c1 | 97.3
CN(CCCNc1cc(=O)oc2ccccc12)C(=O)c1ccco1 | 98
O=c1cc(NC2CCN(CCCc3ccccc3)CC2)c2ccc(Cl)cc2o1 | 22.1
O=C(NCCCNC(=O)c1cccs1)c1nc2ccccc2c(=O)[nH]1 | 71.5
O=c1cc(NCCCN2CCN(Cc3ccccc3)CC2)c2ccccc2o1 | 52.3
O=C(NCCCNc1cc(=O)oc2ccccc12)c1cccnc1 | 30.2
CN1CCN(CCCNc2c(N)c(=O)oc3ccccc23)CC1 | 24.5
O=c1oc2ccccc2c(NCCCN2CCOCC2)c1[N+](=O)[O-] | 42.8
O=c1cc(NCCCn2ccnc2)c2ccccc2o1 | 58.5
O=c1oc2ccccc2c(NC2CCN(Cc3ccccc3)CC2)c1[N+](=O)[O-] | 58.5
COc1cccc2cc(C(=O)N(C)C)c(=O)oc12 | 38.5
CN(C)CCCNCCCNc1cc(=O)oc2ccccc12 | 37.2
CN(CCCNc1cc(=O)oc2ccccc12)S(=O)(=O)c1ccccc1 | 28.6
CN(CCCNc1cc(=O)oc2ccccc12)C(=O)c1cccc(Cl)c1 | 97.1
O=C(CNc1cc(=O)oc2ccccc12)OCC(=O)c1ccc(Br)cc1 | 97.4
O=C(NCCNc1cc(=O)oc2ccccc12)c1ccc2ccccc2n1 | 12.8
O=C(NCCNc1cc(=O)oc2ccccc12)c1ccco1 | 43.6
CN(CCCNc1cc(=O)oc2ccccc12)C(=O)C(C)(C)C | 96.2

Biological target: T1, Bromodomain-containing protein 4
Experiment: Inhibition of human BRD4-BD1 (49 to 170 residues) expressed in Escherichia coli BL21(DE3) using N-C:SGRG-K(Ac)-GG-K(Ac)-GLG-K(Ac)-GGA-K(Ac)-RHRKVGG-K(biotin) as substrate preincubated for 15 mins followed by substrate addition measured after 5 mins by AlphaScreen assay

SMILES | IC50 [µM]
Cc1ccc(-[n+]2c3ccccc3nc3ccc(N4CCOCC4)cc32)cc1 | 10.9
O=C(Nc1ccc(Cl)cn1)c1c(F)c(F)c(F)c(F)c1F | 32.2
COc1ccccc1NC(=O)CCSc1cccc2cccnc12 | 18.7
N#Cc1c(-c2ccc(Cl)cc2)cc(-c2cccs2)nc1SCC(=O)NCC(=O)O | 0.89
CC(=O)CC(c1ccccc1)c1c(O)c2ncccc2oc1=O (configuration not stated) | 2.83
CN(CCCNc1cc(=O)oc2ccccc12)C(=O)c1cccc(F)c1 | 8.18
O=C(NCc1n[nH]c(=O)c2ccccc12)c1cccc(Cl)c1 | 47.3
COC(=O)C(O)(c1cc(C)c2cccnc2c1O)C(F)(F)F (configuration not stated) | 2.1
O=C(NCCNc1ccc(-n2cccn2)nn1)c1ccccc1 | 13.8
CCCn1nnc(NC(=O)COc2ccc(Cl)cc2C)n1 | 23.1
CN(CCCNc1cc(=O)oc2ccccc12)C(=O)c1ccco1 | 2.05
CC(=O)C(C(C)=O)C(c1ccc(Cl)cc1)c1ccc(Cl)cc1 | 27.5
Cc1ccn(-c2ccc(NCCNC(=O)c3ccc(Br)o3)nn2)n1 | 21.3
O=C(c1ccccc1)c1ccc(NS(=O)(=O)c2cccc(Br)c2)cc1 | 39
CCN1C(=O)c2cccc3c(S(=O)(=O)N4CCCC4)ccc1c23 | 1.91
CCc1nnc(NC(=O)C2(C)COC(c3ccccc3)OC2)s1 (configuration not stated) | 69.2
CCCNS(=O)(=O)c1ccc2c3c(cccc13)C(=O)N2C | 9.57

SMILES | IC50 [µM]
CC1(C)CON(Cc2ccc(N3C(=O)c4cccnc4C3=O)cc2Cl)C1=O | 12.7
COc1ccc(/C=C(\NC(=O)c2ccc(C)cc2)C(=O)NCCCn2ccnc2)cc1 | 11
Cc1ccc(C)c(NC(=O)CC(c2ccccc2)c2ccccc2)c1 | 50.7
CCOC(=O)c1ncccc1NC(=O)CC(=O)Nc1cccnc1C(=O)OCC | 2.87
O=c1[nH]n(CC2COC3(CCCCC3)O2)c(=O)c2ccccc12 (configuration not stated) | 13.3
CN(CCCNc1cc(=O)oc2ccccc12)C(=O)c1cccc(Cl)c1 | 3.65
c1coc(-c2nnc(-c3ccc4ccccc4c3)c3nocc23)c1 | 13.3
CCCNS(=O)(=O)c1ccc2c3c(cccc13)C(=O)N2CC | 2.64
O=C(CNc1cc(=O)oc2ccccc12)OCC(=O)c1ccc(Br)cc1 | 1.04
CCN1C(=O)c2cccc3c(S(=O)(=O)Nc4ccccc4C)ccc1c23 | 9.68
O=C(NCCNc1ccc(-n2cccn2)nn1)c1ccccc1Cl | 11.2
COc1ccc(C2=NN(C(=O)CCCC(=O)O)C(c3cn(-c4ccccc4)nc3-c3ccccc3)C2)cc1 (configuration not stated) | 5.36
O=C(CN1CC(=O)Oc2ccccc21)OCC(=O)c1ccc(Br)cc1 | 1.11
O=C(Nc1cccc(S(=O)(=O)N2CCCC2)c1)c1nc[nH]n1 | 42.2
CN(CCCNc1cc(=O)oc2ccccc12)C(=O)C(C)(C)C | 4.56
CC(=O)N(C)c1ccc(NC(=O)COc2ccc(Br)cc2Cl)cc1 | 50.9
Cc1[nH]n(-c2nc(O)c(Cc3ccccc3)c(=O)[nH]2)c(=O)c1CCO | 3.09
